Measurements as given in paper PMC8199030, “Salvia officinalis L.: Antitrypanosomal Activity and Active Constituents against Trypanosoma brucei rhodesiense” (Molecules, 2021).
In brackets after ≈: the same amount, converted by molar mass. Several values for one entry are separate records, joined by “and”; a condition that tells them apart may be missing. Identical values can stand only once. Like-named read-outs stand apart in the source and are kept apart here.

What was measured:
[1] = Cytotoxicity against mammalian L6 cells; assay type: cell-based; conditions: rat
in vitro = conditions: rat
Procedure: (§1) Samples with a defined concentration of 2 mg/mL were prepared of each fraction and analyzed by UHPLC/ESI-QqTOF-MS (henceforth abbreviated LC/MS) to determine the analytical fingerprints. After the analysis and dereplication of major peaks (see Figure S1 and Table S1 in Supplementary Material) as well as comparison of the samples’ analytical profiles, 17 representative fractions were selected to be assayed in vitro against Tbr. […] IC50 values for the individual fractions were not determined, in order to save resources and since the % GI data can serve as an approximate substitute in cases where relative activities of similar samples such as the fractions under study are compared.
(§2) Melarsoprol was used as positive control. The cytotoxicity of the compounds was assessed using L6 rat skeletal myoblast cells and podophyllotoxin as a reference drug.
(§3) In vitro assays for the bioactivity against Trypanosoma brucei rhodesiense (Tbr, bloodstream-form trypomastigotes, STIB 900 strain) and cytotoxicity tests against mammalian cells (L6-cell-line from rat skeletal myoblasts) were performed at the Swiss Tropical and Public Health Institute (Swiss TPH, Basel, Switzerland), according to established protocols and as previously described.

[2] = tested on: Trypanosoma brucei rhodesiense (Tbr, bloodstream-form trypomastigotes, STIB 900 strain); conditions: cited from earlier work
[3] = tested on: Trypanosoma brucei rhodesiense (Tbr, bloodstream-form trypomastigotes, STIB 900 strain); assay: microbe, parasite or virus in culture; conditions: Trypanosoma brucei, read-out: IC50 Tbr (STIB 900)
Procedure: as §1, §2, §3

[4] = mean of two independent determinations ± deviation from the mean, read-out: IC50 Cytotox L6
[5] = mean of two independent determinations, read-out: IC50 Cytotox L6

SMILES	IC50 [1, 4]	IC50 [1, 5]	selectivity ratio (in vitro)	IC50 [1]	IC50 against Tbr, previous study ([2]; previous study)	IC50 [3]	activity against Tbr, previously reported [2]
C=C[C@](C)(O)CC[C@H]1C(=C)CC[C@H]2C(C)(C)CCC[C@]12C [Manool (9), manool]	5.6 ± 0.5 µg/mL	19 µM	2.1				
COc1cc2oc(-c3ccc(O)cc3)cc(=O)c2c(O)c1OC [Cirsimaritin (1), 4’,5-dihydroxy-6,7-dimethoxyflavone]			2.8	4.6 µg/mL and 15 µM	3.3 µg/mL (≈ 10.5 µM)		
CO[C@H]1c2cc(C(C)C)c(O)c(O)c2[C@@]23CCCC(C)(C)[C@@H]2[C@@H]1OC3=O [7-O-Methylrosmanol (5), 7-O-methylrosmanol]	6.6 ± 0.8 µg/mL	18 µM	0.8			8.3 µg/mL and 23 µM	
CC(C)C1=Cc2ccc3c(c2C(=O)C1=O)CCCC3(C)C [Miltirone, miltirone, reference compound]							very potent activity
CC(C)c1cc2c(c(O)c1O)[C@@]13CCCC(C)(C)[C@@H]1[C@H](OC3=O)[C@H]2O [Compound 3, rosmanol]						~8.3 µg/mL (≈ 24 µM)	
COc1cc([C@@H]2c3cc4c(cc3[C@H](O)[C@H]3COC(=O)[C@H]23)OCO4)cc(OC)c1OC [Podophyllotoxin, reference compound]	0.009 ± 0.001 µg/mL	0.022 µM					
COc1c(C(C)C)cc2c(c1O)[C@@]1(C(=O)O)CCCC(C)(C)[C@@H]1CC2 [12-O-Methylcarnosic acid (8), 12-O-methylcarnosic acid]			1.3	20 µg/mL and 56 µM		15 µg/mL and 44 µM	
CC(C)c1cc2c(c(O)c1O)[C@@]13CCCC(C)(C)[C@@H]1[C@H](OC3=O)[C@@H]2O [Epirosmanol (2), epirosmanol]			1.6	5 µg/mL and 15 µM		3.2 µg/mL and 9.3 µM	
